In patent US20090092975A1, “SELECTABLE MARKER” (Mologic Ltd, priority 2005, published 2009):

Test system: not given
Conditions: Table 1, monocarboxylic weak acids; cited from earlier work

Row | SMILES | Pka
1 | O=C(O)C1(C(=O)O)CC1 [1,1-Cyclopropanedicarboxylic acid] | 3.114
2 | O=C(O)C1=CCCCC1 [1-Cyclohexene-1-carboxylic acid] | 3.7528
3 | O=C(O)C1=CCCC1 [1-Cyclopentene-1-carboxylic acid] | 3.7528
4 | CC1(C(=O)O)CC1 [1-Methyl-cyclopropane carboxylic acid] | 5.1
5 | CCC(C)(C)C(=O)O [2,2-Dimethylbutyric acid] | 5.03
6 | CC#CC(=O)O [2-Butynoic acid] | 2.6546
7 | C=C(Cl)C(=O)O [2-Chloroacrylic acid] | 2.6975
8 | O=C(O)c1ccccc1Cl [2-Chlorobenzoic acid] | 2.89
9 | CC(Cl)C(=O)O (centres unmarked) [2-Chloropropionic acid] | 2.897
10 | O=C(O)CC1C=CCC1 (centres unmarked) [2-Cyclopentene-1-acetic acid] | 4.61
11 | CCC(CC)C(=O)O [2-Ethylbutyric acid] | 4.71
12 | O=C(O)c1ccco1 [2-Furoic acid] | 3.13
13 | CC1CC1C(=O)O (centres unmarked) [2-Methyl-cyclopropane carboxylic acid] | 4.8
14 | CCCC(C)C(=O)O (centres unmarked) [2-Methylvaleric acid] | 4.79
15 | O=C(O)c1ccccc1[N+](=O)[O-] [2-Nitrobenzoic acid] | 2.47
16 | CC(C(=O)O)c1ccccc1 (centres unmarked) [2-Phenylpropionic acid] | 4.0606
17 | CC(C)(C)CC(=O)O [3,3-Dimethylbutyric acid] | 4.961
18 | O=C(O)c1cccc(Cl)c1 [3-Chlorobenzoic acid] | 3.81
19 | O=C(O)CCCl [3-Chloropropionic acid] | 3.8924

Row | SMILES | Pka
20 | O=C(O)C1CC=CCC1 (centres unmarked) [3-Cyclohexene-1-carboxylic acid] | 4.593
21 | O=C(O)CCC1CCCC1 [3-Cyclopentylpropionic acid] | 4.81
22 | CCCCCCC=CCC(=O)O [3-Decenoic acid] | 4.728
23 | CCCC=CCC(=O)O [3-Heptenoic acid] | 4.7696
24 | CCC(C)CC(=O)O (centres unmarked) [3-Methylvaleric acid] | 4.7868
25 | O=C(O)c1cccc([N+](=O)[O-])c1 [3-Nitrobenzoic acid] | 3.46
26 | CCCCC=CCC(=O)O [3-Octenoic acid] | 4.7926
27 | CCc1ccc(C(=O)O)cc1 [4-Ethylbenzoic acid] | 4.35
28 | CC(C)CCC(=O)O [4-Methylvaleric acid] | 4.8689
29 | C=CCCC(=O)O [4-Pentenoic acid] | 4.6364
30 | C#CCCC(=O)O [4-Pentynoic acid] | 4.1342
31 | O=C(O)CCCc1ccccc1 [4-Phenylbutyric acid] | 4.76
32 | C=CCCCCC(=O)O [6-Heptenoic acid] | 4.81
33 | C#CCCCCC(=O)O [6-Heptynoic acid] | 4.71
34 | CC(C)=CCC[C@@H](C)CC(=O)O [(R)(+)Citronellic acid] | 4.752
35 | CC(C)c1ccc(C(=O)O)cc1 [Cumic acid] | 4.35
36 | O=C(O)C1CCCCCC1 [Cycloheptanecarboxylic acid] | 4.9518
37 | O=C(O)CC1CCCCCC1 [Cycloheptylacetic acid] | 4.822
38 | O=C(O)CCCC1CCCCC1 [Cyclohexanebutyric acid] | 4.9061

Row | SMILES | Pka
39 | O=C(O)CC1CCCCC1 [Cyclohexylacetic acid] | 4.8806
40 | O=C(O)C1CCCC1 [Cyclopentanecarboxylic acid] | 4.8
41 | O=C(O)CC1CCCC1 [Cyclopentylacetic acid] | 4.76
42 | O=C(O)CC1CC1 [Cyclopropylacetic acid] | 4.8873
43 | C=C(C)C(=O)O [Methacrylic acid] | 4.61
44 | O=C(O)COc1ccccc1 [Phenoxyacetic acid] | 3.17
45 | O=C(O)Cc1ccccc1 [Phenylacetic acid] | 4.31
46 | C#CC(=O)O [Propiolic acid] | 2.39
47 | O=C(O)c1ccsc1 [Thiophene-3-carboxylic acid] | 4.08
48 | C/C=C(\C)C(=O)O [Tiglic acid] | 4.4564
49 | CCCCCCCCCCC(=O)O [Undecanoic acid] | 5.03
50 | COc1cc(C(=O)O)ccc1O [Vanillic acid] | 4.51
51 | C=CCC(=O)O [Vinylacetic acid] | 4.51
52 | O=C(O)/C=C\Cl [cis-3-Chloroacrylic acid] | 3.2506
53 | COc1cccc(C(=O)O)c1 [m-Anisic acid] | 4.09
54 | Cc1ccccc1C(=O)O [o-Toluic acid] | 3.98
55 | O=C(O)/C=C/Cl [trans-3-Chloroacrylic acid] | 3.2506
56 | C/C=C/CC(=O)O [trans-3-Pentenoic acid] | 4.36

Test system: Saccharomyces cerevisiae strain 62 expressing PAD1
Type: cell-based
Conditions: predicted decarboxylation product in headspace; weak acid 0.5 mM, YEPD pH 4, 10 h at 28° C.; 0 = no decarboxylation
Protocol: S. cerevisiae strain 62 (which expresses the PAD1 gene) was cultured for 48 hr in YEPD pH 4, Yeast extract 10 g, Peptone 20 g, Glucose 20 g, at 28° C. in a shake flask, 120 rpm. The stationary-phase cells were inoculated into capped 28 ml McCartney bottles containing 10 mls YEPD pH 4, at 1 million cells per ml. Each bottle also contained one of 70 substrate weak acids at 0.5 mM. Tubes were then shaken for 10 h at 28° C.
1 ml samples of the headspace were passed into stainless-steel thermal desorption tubes, followed by a 10 ml air flush. (Desorption tubes—89 mm×5 mm ID, packed with 200 mg Tenax TA 60-80 mesh, Phase Separations, UK).
Thermal desorption tubes were placed in a Perkin Elmer ATD400 thermal desorption system, and the volatiles transferred to the Gas Chromatograph in a 2 stage process. Primary desorption was 250° C. for 10 min with a helium flow of […]. Using a split ratio of 1:1, volatiles were retained on a cold trap (25 mg Tenax TA) held at −30° C. Secondary desorption was carried out by rapidly heating and holding the cold trap at 250° C. for 2 min, with a helium flow of 20 ml/min and split ratio of 19:1. A DB624 column {30 m×0.32 mm, 1.8 microns film thickness} installed in a Carbo Erba GC800 was used to achieve separation and introduction of the volatile to the mass spectrometer. The column temperature was held at 40° C. for 2 min then increased at 5° C./min to 250° C. The column outlet was coupled via a heated transfer line at 250° C. into the ion source of the mass spectrometer operated at 70 eV in electron ionization (EI) mode. The source temperature was at 200° C. and the detector photomultiplier at 500V. Full scan MS data acquisition was carried out from m/z 30 to 300, with 0.6 sec scan and 0.05 sec inter scan delay.
The results are shown in Table 3, in each case the “predicted product” being the product which would be produced if decarboxylation of the weak acid were to take place.

Row | SMILES | GCMS Peak area
57 | O=C(O)C=Cc1ccc(F)c(F)c1F [2,3,4-Trifluoro-cinnamic acid] | 0
58 | COc1ccc(C=CC(=O)O)c(OC)c1OC [2,3,4-Trimethoxy-cinnamic acid] | 0
59 | O=C(O)C=Cc1ccc(F)cc1F [2,4-Difluoro-cinnamic acid] | 35698
60 | COc1ccc(C=CC(=O)O)c(OC)c1 [2,4-Dimethoxy-cinnamic acid] | 30
61 | O=C(O)C=Cc1ccccc1Br [2-Bromo-cinnamic acid] | 2912
62 | O=C(O)C=Cc1ccccc1C(=O)O [2-Carboxy-cinnamic acid] | 0
63 | O=C(O)C=Cc1ccccc1Cl [2-Chloro-cinnamic acid] | 4911
64 | CCOc1ccccc1C=CC(=O)O [2-Ethoxycinnamic acid] | 193
65 | O=C(O)C=Cc1ccccc1F [2-Fluoro-cinnamic acid] | 3760
66 | COc1ccccc1C=CC(=O)O [2-Methoxy-cinnamic acid] | 128
67 | Cc1ccccc1C=CC(=O)O [2-Methyl-cinnamic acid] | 18046
68 | O=C(O)C=Cc1ccccc1[N+](=O)[O-] [2-Nitro-cinnamic acid] | 0
69 | O=C(O)C=Cc1ccccc1C(F)(F)F [2-Trifluoromethyl-cinnamic acid] | 1440
70 | O=C(O)C=Cc1cccc(Br)c1 [3-Bromo-cinnamic acid] | 248
71 | O=C(O)C=Cc1cccc(Cl)c1 [3-Choro-cinnamic acid] | 907
72 | O=C(O)C=Cc1cccc(F)c1 [3-Fluoro-cinnamic acid] | 14027
73 | COc1cccc(C=CC(=O)O)c1 [3-Methoxy-cinnamic acid] | 178
74 | Cc1cccc(C=CC(=O)O)c1 [3-Methyl-cinnamic acid] | 8195
75 | O=C(O)C=Cc1cccc([N+](=O)[O-])c1 [3-Nitro-cinnamic acid] | 0
76 | O=C(O)C=Cc1cccc(C(F)(F)F)c1 [3-Trifluoromethyl-cinnamic acid] | 946

Row | SMILES | GCMS Peak area
77 | O=C(O)C=Cc1ccc(C=CC(=O)O)cc1 [3-[4-(2-Carboxy-vinyl)-phenyl]-acrylic acid] | 0
78 | O=C(O)C=Cc1ccc(Br)cc1 [4-Bromo-cinnamic acid] | 1038
79 | O=C(O)C=Cc1ccc(Cl)cc1 [4-Choro-cinnamic acid] | 12391
80 | CN(C)c1ccc(C=CC(=O)O)cc1 [4-Dimethylamino-cinnamic acid] | 0
81 | CCOc1ccc(C=CC(=O)O)cc1 [4-Ethoxycinnamic acid] | 227
82 | O=Cc1ccc(C=CC(=O)O)cc1 [4-Formyl-cinnamic acid] | 0
83 | COc1ccc(C=CC(=O)O)cc1 [4-Methoxy-cinnamic acid] | 1899
84 | O=C(O)C=Cc1ccc([N+](=O)[O-])cc1 [4-Nitro-cinnamic acid] | 0
85 | O=C(O)C=Cc1ccc(C(F)(F)F)cc1 [4-Trifluoromethyl-cinnamic acid] | 1600
86 | O=C(O)c1ccccc1 [Benzoic acid] | 0
87 | O=CC=Cc1ccccc1 [Cinnamaldehyde] | 0
88 | O=C(O)C=Cc1ccccc1 [Cinnamic acid] | 17538
89 | OCC=Cc1ccccc1 [Cinnamyl alcohol] | 0
90 | O=C(O)/C=C/c1ccc(O)cc1 [Coumaric acid] | 0
91 | O=C(O)C=Cc1ccco1 [Furylacrylic acid] | 15611
92 | CCCCCC(=O)O [Hexanoic acid] | 0
93 | O=C(O)CCc1ccccc1 [Hydrocinnamic acid] | 0
94 | O=C(O)C=Cc1c[nH]c2ccccc12 [Indole-acrylic acid] | 0
95 | O=C(O)C#Cc1ccccc1 [Phenyl-propiolic acid] | 0
